# Like-named read-outs stand apart in the source and are kept apart here.
# How the values were obtained:
# human BCRP = biological target: T1, human BCRP (Homo sapiens, UniProt Q9UNQ0); conditions: E3S probe; for ATP dependent transport / Relative ATP dependent transport: mean (n=3) ± SD
# T1 sequence (Q9UNQ0 1-655): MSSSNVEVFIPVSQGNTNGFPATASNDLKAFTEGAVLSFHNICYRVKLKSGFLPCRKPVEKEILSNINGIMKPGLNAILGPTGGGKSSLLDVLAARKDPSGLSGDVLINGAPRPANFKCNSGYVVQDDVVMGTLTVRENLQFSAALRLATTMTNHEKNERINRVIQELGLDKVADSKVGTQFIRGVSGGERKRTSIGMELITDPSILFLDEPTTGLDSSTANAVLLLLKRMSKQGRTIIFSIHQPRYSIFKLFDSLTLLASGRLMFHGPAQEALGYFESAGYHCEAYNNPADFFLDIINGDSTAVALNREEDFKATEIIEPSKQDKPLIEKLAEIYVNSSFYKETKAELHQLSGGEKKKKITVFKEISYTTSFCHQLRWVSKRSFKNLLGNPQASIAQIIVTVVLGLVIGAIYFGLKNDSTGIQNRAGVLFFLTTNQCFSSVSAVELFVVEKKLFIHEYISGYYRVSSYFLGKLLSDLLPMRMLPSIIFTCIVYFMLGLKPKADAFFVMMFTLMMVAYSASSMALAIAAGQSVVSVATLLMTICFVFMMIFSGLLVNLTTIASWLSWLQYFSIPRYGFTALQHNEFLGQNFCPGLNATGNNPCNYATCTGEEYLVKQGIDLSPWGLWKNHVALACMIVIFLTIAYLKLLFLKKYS
# Description: The incubations were carried out in the presence of 4 mM ATP or AMP to distinguish between transporter-mediated uptake and passive diffusion into the vesicles. […] Afterwards, the reaction mixtures were pre-incubated for 15 min at 37 °C for MRP1 or at 32 °C for BCRP, MDR1 and MRP4, respectively. The transporter assay was initiated through the addition of 25 μL of pre-warmed 12 mM MgATP (or 12 mM AMP in assay buffer as a background control). The reactions were quenched through the addition of 200 μL of ice-cold washing buffer and immediate filtration via glass fiber filters mounted onto a 96-well plate (filter plate). The filters were washed (5 × 200 μL of ice-cold washing buffer) and dried, and the amount of probe substrate inside the filtered vesicles was determined using LSC. The experiments were conducted in triplicate.
# Calculation of ATP-dependent transport and inhibition for vesicular transport inhibition
# For all wells the amount of the translocated probe substrate was determined in counts per minute (cpm).
# ATP-dependent transport (pmol/mg protein/min) is calculated for each concentration using the following
# 𝐴𝑐𝑐𝐴𝑇𝑃 ∙ 𝑉 ∙ 𝐶𝐶 𝐴𝑐𝑐𝐴𝑀𝑃 ∙𝑉 ∙𝐶𝐶
# 𝐴𝑇𝑃 − 𝑑𝑒𝑝𝑒𝑛𝑑𝑒𝑛𝑡 𝑎𝑐𝑐𝑢𝑚𝑢𝑙𝑎𝑡𝑖𝑜𝑛 = ( 𝑇𝐶𝑃𝑀 𝑠𝑢𝑏) − ( 𝑇𝐶𝑃𝑀 𝑠𝑢𝑏)
# • AccATP: probe substrate accumulation with ATP (cpm)
# • AccAMP: probe substrate accumulation with AMP (cpm)
# • Tcpm: cpm in dosing solution V: volume per well (µL)
# • CCsub: probe substrate concentration (µM)
# • Prot: total protein per well (mg)
# • t: incubation time (min)
# Relative ATP-dependent transport (%) values were calculated using the following equation:
# 𝑅𝑒𝑙𝑎𝑡𝑖𝑣𝑒 𝐴𝑇𝑃 − 𝑑𝑒𝑝𝑒𝑛𝑑𝑒𝑛𝑡 𝑡𝑟𝑎𝑛𝑠𝑝𝑜𝑟𝑡 (%) = 𝐴 − 𝐵 ∙ 100
# • A: amount of translocated substrate in the presence of test substance (TS) and ATP
# • B: amount of translocated substrate in the presence of test substance (TS) and AMP
# • C: amount of translocated substrate in the presence of solvent and ATP
# • D: amount of translocated substrate in the presence of solvent and AMP
# Relative inhibition (%) is calculated by setting probe substrate transport in the absence of test substance as
# 𝑅𝑒𝑙𝑎𝑡𝑖𝑣𝑒 𝑖𝑛ℎ𝑖𝑏𝑖𝑡𝑖𝑜𝑛 (%) = 𝐴𝑐𝑐𝑆𝑝𝑒𝑐𝑖𝑓𝑖𝑐,𝑥 ∙100
# • Accspecific,x: transporter specific accumulation for a given sample (pmol/mg/min)
# • Accspecific,vehicle: transporter specific accumulation for a solvent control (pmol/mg/min)
# Data are expressed as m ean
# measured in the vesicular transport inhibition assay.
# Nominal ATP Relative ATP Relative
# Compound concentration [µM] dependent transport dependent transport inhibition [%]
# [pmol/mg/min] [% of control]
# Data are expressed as mean (n=3) ± SD.
# human PEPT2 = biological target: T2, human PEPT2 (Homo sapiens, UniProt Q16348); assay: SLC transporter substrate assay, CHO-K1-PEPT2 vs control CHO-K1 cells; conditions: 20 min; for Max. transporter-specific fold accumulation, without inhibitor / Max. transporter-specific fold accumulation, with inhibitor: 0.3 µM; for Max. transporter-specific fold accumulation, with inhibitor: Cefadroxil
# T2 sequence (Q16348 1-729): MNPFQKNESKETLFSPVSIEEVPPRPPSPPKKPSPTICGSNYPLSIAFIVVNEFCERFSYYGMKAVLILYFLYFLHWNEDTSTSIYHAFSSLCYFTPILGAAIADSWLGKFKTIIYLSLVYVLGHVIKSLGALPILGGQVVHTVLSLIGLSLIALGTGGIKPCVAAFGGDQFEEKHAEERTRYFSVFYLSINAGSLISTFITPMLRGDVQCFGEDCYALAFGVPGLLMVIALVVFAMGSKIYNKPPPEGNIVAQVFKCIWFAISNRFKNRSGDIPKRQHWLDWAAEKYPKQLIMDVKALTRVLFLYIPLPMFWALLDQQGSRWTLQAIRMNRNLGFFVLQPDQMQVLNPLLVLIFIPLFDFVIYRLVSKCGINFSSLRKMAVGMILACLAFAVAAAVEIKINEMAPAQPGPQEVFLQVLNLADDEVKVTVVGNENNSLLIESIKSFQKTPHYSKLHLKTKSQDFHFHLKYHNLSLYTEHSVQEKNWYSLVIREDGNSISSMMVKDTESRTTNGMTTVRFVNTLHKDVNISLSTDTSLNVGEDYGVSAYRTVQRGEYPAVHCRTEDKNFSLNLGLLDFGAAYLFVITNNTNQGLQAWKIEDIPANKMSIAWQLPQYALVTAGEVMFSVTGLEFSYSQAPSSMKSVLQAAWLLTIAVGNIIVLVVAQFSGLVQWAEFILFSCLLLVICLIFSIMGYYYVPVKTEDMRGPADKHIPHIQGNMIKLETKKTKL
# Description: The described cells were plated onto standard 24-well tissue culture plates at densities of 5 × 10^5 cells/well. […] Before starting the experiment, the cells were prepared by removing the medium and washing the cells twice with 300 µL of assay buffer. […] The cells were lysed by adding 300 µL of 0.1N NaOH, they were incubated for 10 min at 37 °C and 100 µL samples were taken from all the wells.
# The amount of protein in each well was quantified using the BCA kit for protein determination (Sigma-Aldrich, St Louis, MO, USA). Positive controls were performed using a separate 96-well plate format according to Table S8 in SI4.
# SI4. Results of transporter substrate assays (SLC)
# Table S8: Parameters of positive controls, control cell lines and plating for SLC transporters assays.
# KH: Krebs-Henseleit buffer, HBSS: Hank's balanced salt solution, MES: 2 -(N-morpholino) ethanesulfonic acid, cGMP:
# Guanosine cyclic phosphate, E3S: Estrone -3-sulfate, Gly-Sar: Glycylsarcosine, MPP+: 1-methyl-4-phenylpyridinium.
# Calculation of fold accumulation values for SLC transporter substrate assays The fold accumulation value was defined as the ratio of uptake of the test substance (TS) or probe substrate into transfected and control cells. If the fold accumulation is > 2 and can be inhibited by a known inhibitor of the transporter, the test substance can be considered as a substrate of the respective transporter.
# Fold accumulation = UPTTRP
# • UPTTRP: accumulated amount of test substance (TS) or probe substrate in transfected cells normalized by protein content […]
# • UPTCTRL: accumulated amount of test substance (TS) or probe substrate in control cells normalized by protein content […]
# Positive control conducted at pH 5.0.
# Gly-Sar: Glycylsarcosine.
# [1] = pH 5.0, 0.03 µM nominal + Cefadroxil 200 µM
# [2] = pH 5.0, 0.03 µM nominal, no inhibitor
# [3] = pH 5.0, 0.30 µM nominal + Cefadroxil 200 µM
# [4] = pH 5.0, 0.30 µM nominal, no inhibitor
# [5] = pH 6.0, 0.03 µM nominal + Cefadroxil 200 µM
# [6] = pH 6.0, 0.03 µM nominal, no inhibitor
# [7] = pH 6.0, 0.30 µM nominal + Cefadroxil 200 µM
# [8] = pH 6.0, 0.30 µM nominal, no inhibitor
smiles,measurement,setting,value
"[3H]C(c1ccc2ccccc2c1)C([3H])(NC(=O)C1CCC(CNC(=O)CN2CCN(CC(=O)[O-])CCN(CC(=O)[O-])CCN(CC(=O)[O-])CC2)CC1)C(=O)NCCCCC(NC(=O)NC(CCC(=O)O)C(=O)O)C(=O)O.[Lu+3] (stereo not drawn) [([α,β-^3H]Nal)Lu-PSMA-617]",Relative inhibition,human BCRP; test substance 0.30 µM nominal,1%
same,ATP dependent transport,human BCRP; test substance 0.30 µM nominal,23285.00 ± 769.03 pmol/mg/min
same,Relative ATP dependent transport,human BCRP; test substance 0.30 µM nominal,98.5 ± 3.67 % of control
same,Relative inhibition,human BCRP; test substance 3.00 µM nominal,0%
same,ATP dependent transport,human BCRP; test substance 3.00 µM nominal,23687.00 ± 869.33 pmol/mg/min
same,Relative ATP dependent transport,human BCRP; test substance 3.00 µM nominal,100.22 ± 4.06 % of control
same,Uptake via transporter (PEPT2),"human PEPT2; pH 5.0 and 6.0, absence and presence of cefadroxil",not taken up
same,Accumulation in PEPT2 transporter expressing cells,human PEPT2; [1],0.16 ± 0.03 pmol/mg protein
same,Accumulation in control cells,human PEPT2; [1],0.08 ± 0.00 pmol/mg protein
same,"Accumulation, active transport",human PEPT2; [1],0.08 ± 0.03 pmol/mg protein
same,Fold accumulation,human PEPT2; [1],1.94
same,Accumulation in PEPT2 transporter expressing cells,human PEPT2; [2],0.16 ± 0.03 pmol/mg protein
same,Accumulation in control cells,human PEPT2; [2],0.12 ± 0.01 pmol/mg protein
same,"Accumulation, active transport",human PEPT2; [2],0.04 ± 0.03 pmol/mg protein
same,Fold accumulation,human PEPT2; [2],1.34
same,Accumulation in PEPT2 transporter expressing cells,human PEPT2; [3],1.58 ± 0.48 pmol/mg protein
same,Accumulation in control cells,human PEPT2; [3],0.70 ± 0.12 pmol/mg protein
same,"Accumulation, active transport",human PEPT2; [3],0.88 ± 0.50 pmol/mg protein
same,Fold accumulation,human PEPT2; [3],2.27
same,Accumulation in PEPT2 transporter expressing cells,human PEPT2; [4],1.70 ± 0.50 pmol/mg protein
same,Accumulation in control cells,human PEPT2; [4],0.87 ± 0.16 pmol/mg protein
same,"Accumulation, active transport",human PEPT2; [4],0.83 ± 0.53 pmol/mg protein
same,Fold accumulation,human PEPT2; [4],1.95
same,"Max. transporter-specific fold accumulation, without inhibitor",human PEPT2; pH 5.0,1.95
same,"Max. transporter-specific fold accumulation, with inhibitor",human PEPT2; pH 5.0,2.27
same,Accumulation in PEPT2 transporter expressing cells,human PEPT2; [5],0.17 ± 0.05 pmol/mg protein
same,Accumulation in control cells,human PEPT2; [5],0.08 ± 0.01 pmol/mg protein
same,"Accumulation, active transport",human PEPT2; [5],0.09 ± 0.05 pmol/mg protein
same,Fold accumulation,human PEPT2; [5],2.21
same,Accumulation in PEPT2 transporter expressing cells,human PEPT2; [6],0.15 ± 0.05 pmol/mg protein
same,Accumulation in control cells,human PEPT2; [6],0.10 ± 0.04 pmol/mg protein
same,"Accumulation, active transport",human PEPT2; [6],0.06 ± 0.06 pmol/mg protein
same,Fold accumulation,human PEPT2; [6],1.57
same,Accumulation in PEPT2 transporter expressing cells,human PEPT2; [7],1.57 ± 0.55 pmol/mg protein
same,Accumulation in control cells,human PEPT2; [7],0.70 ± 0.16 pmol/mg protein
same,"Accumulation, active transport",human PEPT2; [7],0.88 ± 0.58 pmol/mg protein
same,Fold accumulation,human PEPT2; [7],2.26
same,Accumulation in PEPT2 transporter expressing cells,human PEPT2; [8],1.57 ± 0.45 pmol/mg protein
same,Accumulation in control cells,human PEPT2; [8],0.87 ± 0.07 pmol/mg protein
same,"Accumulation, active transport",human PEPT2; [8],0.70 ± 0.45 pmol/mg protein
same,Fold accumulation,human PEPT2; [8],1.81
same,"Max. transporter-specific fold accumulation, without inhibitor",human PEPT2; pH 6.0,1.81
same,"Max. transporter-specific fold accumulation, with inhibitor",human PEPT2; pH 6.0,2.26
